Test results taken from BindingDB's records for doi:10.1021/jm00129a011 (Csiro Division of Chemicals and Polymers, 1989).

Target: Alpha-mannosidase (Canavalia ensiformis)
Test: Inhibitory activity against Mannosidase in jack bean (Canavalia ensiformis)

IC50 [µM] | SMILES
0.5 | OC[C@@H](O)[C@H]1NC[C@@H](O)[C@H]1O
0.6 | C[C@@H](O)[C@H]1NC[C@@H](O)[C@H]1O
